The values that follow come from PubChem BioAssay (NCI).

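48-hour exposure; five concentrations; linearly interpolated endpoints. GI50 = concentration required for 50% inhibition of growth. TGI is the concentration that stops growth completely.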

Some test systems named below: OVCAR-8 ovarian; HOP-92 NSCLC; SNB-75 CNS; LXFL 529 NSCLC; SF-295 CNS; SK-OV-3 ovarian; SN12C renal; M19-MEL melanoma; UACC-257 melanoma; HCT-116 colon.
Common to all, as to assay: NCI-60 cell line screen, 48 h

As to `COC(=O)C1CCC2(CC1)NC(=O)NC2=O` (stereo not drawn), the TGI in the assay with OVCAR-8 ovarian, in the assay on HOP-92 NSCLC, with SNB-75 CNS, with LXFL 529 NSCLC, in the assay on SF-295 CNS and in the assay on SK-OV-3 ovarian was > 100 µM each time. The TGI with SN12C renal, in the assay on M19-MEL melanoma, in the assay with UACC-257 melanoma and in the assay on HCT-116 colon was > 100 µM throughout.
For `NCCN.O=N[O-].O=N[O-].O=N[O-].O=N[O-].[Co+3].[K+]`, the GI50 in the assay on OVCAR-8 ovarian is > 100 µM; in the assay with HOP-92 NSCLC it was 85.7 µM; in the assay on SNB-75 CNS it was > 100 µM; in the assay on LXFL 529 NSCLC, > 100 µM; in the assay on SF-295 CNS it was > 100 µM; in the assay with SK-OV-3 ovarian it was > 100 µM. The GI50 in the assay with SN12C renal, in the assay with M19-MEL melanoma, with UACC-257 melanoma and in the assay with HCT-116 colon was > 100 µM in each case. Moreover, the TGI with OVCAR-8 ovarian, in the assay on HOP-92 NSCLC, in the assay on SNB-75 CNS, with LXFL 529 NSCLC, in the assay with SF-295 CNS and in the assay with SK-OV-3 ovarian was > 100 µM throughout. Also, the TGI with SN12C renal, in the assay on M19-MEL melanoma, with UACC-257 melanoma and in the assay on HCT-116 colon was > 100 µM in each case.
Regarding `CCOc1ccccc1Nc1nc(C)c(C(=O)CC(=O)C(=O)Nc2ccccc2)s1`, the TGI in the assay with OVCAR-8 ovarian is > 100 µM; in the assay with HOP-92 NSCLC, > 100 µM; with SNB-75 CNS it was 88.6 µM; in the assay on LXFL 529 NSCLC, > 100 µM; with SF-295 CNS, > 100 µM; in the assay with SK-OV-3 ovarian, > 100 µM. Moreover, the TGI in the assay on SN12C renal, with M19-MEL melanoma, in the assay with UACC-257 melanoma and in the assay on HCT-116 colon was > 100 µM in each case.
Take `CC(=O)/C=C\C(=O)NNS(=O)(=O)c1ccc(C)cc1`: the TGI in the assay on OVCAR-8 ovarian, with HOP-92 NSCLC, with SNB-75 CNS, with LXFL 529 NSCLC, in the assay on SF-295 CNS and in the assay on SK-OV-3 ovarian was > 100 µM in each case. In addition, the TGI in the assay with SN12C renal, with M19-MEL melanoma, in the assay on UACC-257 melanoma and in the assay with HCT-116 colon was > 100 µM in each case.
As for `Cc1nn(C(=O)CC(=O)Nc2ccccc2Cl)c(C)c1N=Nc1ccccc1Cl`, the TGI in the assay with OVCAR-8 ovarian, with HOP-92 NSCLC, in the assay with SNB-75 CNS, in the assay on LXFL 529 NSCLC, in the assay with SF-295 CNS and with SK-OV-3 ovarian was > 100 µM each time. The TGI with SN12C renal, with M19-MEL melanoma, with UACC-257 melanoma and in the assay on HCT-116 colon was > 100 µM throughout.
`COc1cc(C2C(C(=O)Nc3ccc(Cl)c(Cl)c3)=C(C)NC(C)=C2C(=O)Nc2ccc(Cl)c(Cl)c2)ccc1O`: the TGI in the assay on OVCAR-8 ovarian was 40.3 µM; in the assay with HOP-92 NSCLC, 11.1 µM; with SNB-75 CNS, 34.5 µM; with LXFL 529 NSCLC, 21.2 µM; in the assay with SF-295 CNS, 34.5 µM; with SK-OV-3 ovarian it was 34.5 µM. For the same molecule, the TGI amounted to 30.9 µM in the assay with SN12C renal, 32 µM with M19-MEL melanoma and 28.7 µM in the assay with UACC-257 melanoma.
With `O=C1[C@@H]2C3C=CC([C@H]4C(=O)N(CO)C(=O)[C@@H]34)[C@@H]2C(=O)N1CO`, the TGI was 97.6 µM in the assay with OVCAR-8 ovarian; > 100 µM in the assay with HOP-92 NSCLC; > 100 µM with SNB-75 CNS; > 100 µM with LXFL 529 NSCLC; > 100 µM in the assay on SF-295 CNS; > 100 µM in the assay on SK-OV-3 ovarian. For the same molecule, the TGI with SN12C renal is > 100 µM; in the assay with M19-MEL melanoma, > 58.8 µM; in the assay with UACC-257 melanoma, > 100 µM; with HCT-116 colon, > 57.4 µM.
With `Nc1n[nH]c(=O)c2c1c(Br)cn2C1OC(CO)C(O)C1O` (stereo not drawn), the TGI in the assay with OVCAR-8 ovarian is 6.23 µM; in the assay on HOP-92 NSCLC, 7.59 µM; in the assay on SNB-75 CNS it was 11.2 µM; with LXFL 529 NSCLC it was > 100 µM; in the assay with SF-295 CNS, > 90.2 µM; with SK-OV-3 ovarian, > 100 µM. Besides, the TGI in the assay with SN12C renal is 43.5 µM; in the assay with M19-MEL melanoma, 40.2 µM; in the assay on UACC-257 melanoma it was > 77.9 µM; with HCT-116 colon it was > 40.6 µM.
With `COc1ccc(/C=C(\NC(=O)c2ccccc2)c2nc3ccccc3[nH]2)cc1`, the TGI with OVCAR-8 ovarian is > 100 µM; in the assay on HOP-92 NSCLC, > 100 µM; with SNB-75 CNS it was 99.4 µM; in the assay on LXFL 529 NSCLC, > 100 µM; in the assay with SK-OV-3 ovarian it was 96.5 µM; in the assay on SN12C renal, > 100 µM. Moreover, the TGI in the assay on M19-MEL melanoma was > 100 µM; with UACC-257 melanoma it was 58.7 µM; with HCT-116 colon it was > 100 µM.
Take `O=C1OC2C(O)COC2(OCc2c[nH]c3ccccc23)C1O` (stereo not drawn) (tested in a mixture with another compound): the TGI in the assay with OVCAR-8 ovarian, in the assay on HOP-92 NSCLC, in the assay on SNB-75 CNS, in the assay on LXFL 529 NSCLC, in the assay with SF-295 CNS and in the assay with SK-OV-3 ovarian was > 100 µM throughout. The TGI with SN12C renal, with M19-MEL melanoma, in the assay with UACC-257 melanoma and in the assay on HCT-116 colon was > 100 µM in each case.
As for `COCC(O)CN1C(N)=NC(O)C1O` (stereo not drawn), the TGI in the assay on OVCAR-8 ovarian, with HOP-92 NSCLC, in the assay on SNB-75 CNS, in the assay on LXFL 529 NSCLC, with SF-295 CNS and with SN12C renal was > 100 µM each time. For the same molecule, the TGI in the assay on M19-MEL melanoma and in the assay with UACC-257 melanoma was > 100 µM in each case.
With `CCCCCC1C2C(=O)NC(=O)C1C(=O)NC2=O` (stereo not drawn), the TGI in the assay on OVCAR-8 ovarian, in the assay on HOP-92 NSCLC, in the assay on SNB-75 CNS, in the assay on LXFL 529 NSCLC, with SF-295 CNS and with SK-OV-3 ovarian was > 100 µM each time. For the same molecule, the TGI in the assay on SN12C renal, in the assay on M19-MEL melanoma and in the assay with UACC-257 melanoma was > 100 µM in each case.
`O=[N+]([O-])c1ccc(-c2ccc(C3=Nn4c(nnc4-c4ccc(Cl)cc4)SC3)o2)cc1`: the TGI is > 100 µM in the assay with OVCAR-8 ovarian; > 75.8 µM in the assay on HOP-92 NSCLC; > 65.3 µM in the assay on SNB-75 CNS; > 100 µM in the assay with LXFL 529 NSCLC; > 82.1 µM in the assay with SF-295 CNS; > 100 µM in the assay on SK-OV-3 ovarian. The TGI in the assay on SN12C renal, in the assay on M19-MEL melanoma, in the assay with UACC-257 melanoma and in the assay on HCT-116 colon was > 100 µM each time.
Regarding `O=c1c2ccccc2nc(-c2ccccc2Cl)n1NC1OC(CO)C(O)C(O)C1O` (stereo not drawn), the TGI in the assay on OVCAR-8 ovarian, in the assay with HOP-92 NSCLC, with SNB-75 CNS, with LXFL 529 NSCLC, in the assay on SF-295 CNS and with SK-OV-3 ovarian was > 100 µM throughout. Besides, the TGI in the assay with SN12C renal, in the assay on M19-MEL melanoma, in the assay with UACC-257 melanoma and in the assay with HCT-116 colon was > 100 µM in each case.
For the molecule `CC(=O)NC1C(=O)CC(c2ccccc2)N(C)C1c1ccccc1` (stereo not drawn), the TGI with OVCAR-8 ovarian, in the assay on HOP-92 NSCLC, with SNB-75 CNS, in the assay on LXFL 529 NSCLC, with SF-295 CNS and in the assay on SK-OV-3 ovarian was > 100 µM in each case. The TGI in the assay on SN12C renal, with M19-MEL melanoma, in the assay on UACC-257 melanoma and with HCT-116 colon was > 100 µM throughout.
Consider `Cc1ccc(S(=O)(=O)c2ccccn2)cc1`, for which the TGI in the assay with OVCAR-8 ovarian, in the assay on HOP-92 NSCLC, with SNB-75 CNS, in the assay with LXFL 529 NSCLC, with SF-295 CNS and with SK-OV-3 ovarian was > 100 µM in each case. For the same molecule, the TGI in the assay with SN12C renal, in the assay with M19-MEL melanoma, with UACC-257 melanoma and in the assay with HCT-116 colon was > 100 µM in each case.
Consider `CC[N+]1(C)CCC(O)(/C=C/c2ccccc2)C(C(=O)/C=C/c2ccccc2)C1` (stereo not drawn), for which the TGI amounted to 43 µM in the assay on OVCAR-8 ovarian; 31.4 µM with HOP-92 NSCLC; 34.7 µM with SNB-75 CNS; 6.7 µM with LXFL 529 NSCLC; 33.4 µM in the assay with SF-295 CNS; 32.9 µM in the assay on SK-OV-3 ovarian. Moreover, the TGI with SN12C renal was 18 µM; with M19-MEL melanoma, 27.3 µM; in the assay on UACC-257 melanoma, 24.8 µM; in the assay with HCT-116 colon it was 38 µM.
As for `Cc1nc2c(=O)n(C)c(=O)nc-2n(-c2ccc(Cl)cc2)c1C`, the TGI in the assay with OVCAR-8 ovarian, in the assay on HOP-92 NSCLC, in the assay on SNB-75 CNS, in the assay on LXFL 529 NSCLC, in the assay with SF-295 CNS and in the assay on SK-OV-3 ovarian was > 100 µM each time. The TGI in the assay with SN12C renal, with M19-MEL melanoma and with UACC-257 melanoma was > 100 µM in each case.
With `S=C(N/N=C/c1ccccc1)NC1CC(c2ccccc2)Oc2ccccc21` (stereo not drawn), the TGI in the assay with OVCAR-8 ovarian is > 100 µM; in the assay with HOP-92 NSCLC, 10.2 µM; with SNB-75 CNS, 31.3 µM; in the assay on LXFL 529 NSCLC it was > 100 µM; in the assay with SF-295 CNS it was 87.7 µM; in the assay on SK-OV-3 ovarian it was > 100 µM. Further, the TGI in the assay on SN12C renal, with M19-MEL melanoma and with HCT-116 colon was > 100 µM each time.
